Experimental data from patent US20050131209A1, “Crystallized hnf4 gamma ligand binding domain polypeptide and screening methods employing same” (priority 2001, published 2005).
Entries after “also recorded” stand apart in the source; their conditions may differ.

Experiments:
[1] = biological target: T1, HNF4α LBD / CBP (CREB-binding protein) (Homo sapiens, UniProt P41235); assay: FRET assay of CBP recruitment to HNF4α LBD; type: biochemical; conditions: cell-free FRET; for Kd: dose dependent, read-out: apparent binding constant (increase of CBP-HNF4 interaction); for effect on CBP recruitment / association between HNF4 and CBP: ligands incubated 15 minutes at 21° C.
T1 construct: HNF4α amino acids 141465 and HNF4γ amino acids 102-408; biotin (chemical biotinylation); made in house; host or cells: E. coli
T1 sequence (P41235 150-474 limits assumed): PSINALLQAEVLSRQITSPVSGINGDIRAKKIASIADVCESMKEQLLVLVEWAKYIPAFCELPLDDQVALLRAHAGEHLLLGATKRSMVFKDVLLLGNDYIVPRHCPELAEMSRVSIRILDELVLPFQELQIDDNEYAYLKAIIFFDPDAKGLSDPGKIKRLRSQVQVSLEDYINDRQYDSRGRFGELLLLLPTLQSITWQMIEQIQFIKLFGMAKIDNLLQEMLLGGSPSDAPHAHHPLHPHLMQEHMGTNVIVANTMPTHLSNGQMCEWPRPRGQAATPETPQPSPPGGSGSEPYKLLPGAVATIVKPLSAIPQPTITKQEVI
Procedure: (§1) To confirm that fatty acids were functional HNF4 ligands, HNF4α and HNF4γ were tested for their ability to recruit the nuclear receptor co-activator CREB binding protein, a known activation partner (Wang et al., (1998) J. Biol. Chem. 273: 30847-50; Dell & Hadzopoulou-Cladaras, (1999) J. Biol. Chem. 274: 9013-21). A FRET (fluorescent resonance energy transfer) assay was employed using purified recombinant CREB-binding protein (CBP) and HNF4 LBD (Zhou et al., (1998) Mol. Endocrinol. 12: 1594-1604). Long-chain fatty acids (LCFA) with increasing carbon lengths from 12 to 18 carbon methylene units were tested for their ability to modulate the association between HNF4 and CBP in a dose dependent manner. […] Palmitic and stearic acids increased the allosteric interaction between CBP and HNF4, with apparent binding constants of 1 μM.
(§2) The reported ligands for HNF4α are fatty acyl-CoA thioesters (Hertz et al., (1998) Nature (London) 392: 512-16), which are much larger than other nuclear receptor ligands (Bogan et al., (1998) Nat. Struct. Biol. 5: 679-81). […] Shorter fatty acyl-CoAs had no effect on CBP association.
(§3) A cell-free fluorescent resonance energy transfer (FRET) assay was used to measure the association between the amino portion of CBP (CREB-binding protein) (residues 54-457) and the HNF4 LBD (HNF4α amino acids 141465 and HNF4γ amino acids 102-408) (Zhou et al., (1998) Mol. Endocrinol 12: 1594-1604). Proteins were expressed in E. coli, purified to homogeneity, and biotinylated. CBP, the fluorescence donor, was labeled with a europium chelate, and HNF4 LBD was labeled with the streptavidin-conjugated fluorophore allophycocyanin (Molecular Probes, Eugene, Oreg.). Labeled HNF4 LBD and CBP were incubated together with ligands for 15 minutes at 21° C. before assaying. A small basal level was observed, as depicted in FIG. 3.

[2] = biological target: T2, HNF4γ LBD / CBP (CREB-binding protein) (Homo sapiens, UniProt Q14541); assay: FRET assay of CBP recruitment to HNF4γ LBD; type: biochemical; conditions: cell-free FRET; for Kd: dose dependent, read-out: apparent binding constant (increase of CBP-HNF4 interaction); for effect on CBP recruitment / association between HNF4 and CBP: ligands incubated 15 minutes at 21° C.
T2 construct: HNF4γ amino acids 102-408; biotin (chemical biotinylation); made in house; host or cells: E. coli
T2 sequence (Q14541 102-408): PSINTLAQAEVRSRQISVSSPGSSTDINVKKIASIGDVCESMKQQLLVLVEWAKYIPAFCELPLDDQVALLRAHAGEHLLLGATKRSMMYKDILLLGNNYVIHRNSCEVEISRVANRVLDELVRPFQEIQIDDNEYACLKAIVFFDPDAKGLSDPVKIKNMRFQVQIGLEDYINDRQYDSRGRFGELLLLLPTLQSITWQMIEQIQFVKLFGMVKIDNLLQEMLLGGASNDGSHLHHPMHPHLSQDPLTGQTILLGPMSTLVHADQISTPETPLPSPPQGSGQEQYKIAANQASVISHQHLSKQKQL
Procedure: as §1, §2, §3

HNF4γ LBD = biological target: T3, HNF4γ LBD (Homo sapiens, UniProt Q14541); assay: GC/MS identification of fatty acids bound to purified HNF4γ LBD (extract); type: binding; conditions: lipid extract of purified HNF4γ LBD, methyl esters, CI and EI
T3 construct: HNF4γ amino acids 102-408; made in house; host or cells: E. coli BL21 (DE3), vector pRSETa
T3 sequence (Q14541 102-408): T2 sequence (Q14541 102-408)
Procedure: The description of the bound ligand from the structural data led to the belief that the compound was a fatty acid. Analytical methods were used to obtain a definitive identification of the ligand. First, bound ligand(s) was separated from a purified preparation of HNF4γ LBD by liquid-liquid extraction (Folch et al., (1957) J. Biol. Chem. 226: 497-509). The extract was then treated with 3% (v/v) acetyl chloride in methanol. This reagent converts fatty acids to their corresponding fatty acid methyl esters (FAME). The derivatized sample was then analyzed by gas chromatography/mass spectrometry (GC/MS) using both electron impact ionization (EI) and chemical ionization (CI) in separate analyses. The constituents of the extract were identified by comparing the GC/MS data for the extract with data for standard fatty acids, acquired likewise.
The CI mass spectra for peaks a through g all show a protonated molecular ion ([M+H]^+) along with a fragment ion at a mass-to-charge (m/z) value 32 Da below the protonated molecular ion. […]
The second column lists the protonated molecular ion detected of each labeled peak in FIG. 4. […]
Lipids were extracted from an aliquot of HNF4γ LBD with chloroform/methanol 2:1 (v/v). […] The derivatized sample was then analyzed by GC/MS on a Shimadzu GC-17A QP-5050A instrument. […]

HNF4α = biological target: T4, HNF4α (Homo sapiens, UniProt P41235); assay: GC/MS analyses of receptor extracts, HNF4α; type: binding
T4 sequence (P41235 1-474): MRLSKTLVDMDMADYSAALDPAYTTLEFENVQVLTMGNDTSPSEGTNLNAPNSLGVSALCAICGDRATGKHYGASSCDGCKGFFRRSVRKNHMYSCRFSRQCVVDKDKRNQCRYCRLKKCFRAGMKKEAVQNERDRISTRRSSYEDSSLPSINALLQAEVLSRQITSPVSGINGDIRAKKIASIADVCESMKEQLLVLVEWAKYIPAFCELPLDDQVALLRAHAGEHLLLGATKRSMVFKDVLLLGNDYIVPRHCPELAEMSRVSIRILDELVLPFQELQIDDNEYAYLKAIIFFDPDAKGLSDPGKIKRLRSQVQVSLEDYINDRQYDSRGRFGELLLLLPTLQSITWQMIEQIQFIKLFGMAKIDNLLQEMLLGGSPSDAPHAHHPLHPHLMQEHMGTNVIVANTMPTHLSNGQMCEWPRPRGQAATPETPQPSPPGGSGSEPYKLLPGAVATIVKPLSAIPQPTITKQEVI
From the text: Palmitic acid forms hydrogen bonds with the side chain of arginine 186, and with the backbone nitrogen of glycine 197 (not shown). Alanine 215 corresponds to serine 256 in HNF4α. Because serine can form hydrogen bonds to the ligand, the specificity is different for the two receptor subtypes. […] Valine 214 corresponds to valine 255 in HNF4α, and is one of the mutations associated with MODY, Type 1.

| Kd [1] [nM] | Kd [2] [nM] | fatty acid found in HNF4γ extract by GC/MS (HNF4γ LBD) | binding to HNF4α by GC/MS of receptor extracts (HNF4α) | Compound | effect on CBP recruitment / association between HNF4 and CBP [1] | effect on CBP recruitment / association between HNF4 and CBP [2] |
| --- | --- | --- | --- | --- | --- | --- |
| 1000 | 1000 | most abundant component | binds | CCCCCCCCCCCCCCCC(=O)O [palmitic acid] | functional activators; also recorded: increased | functional activators; also recorded: increased |
| – | – | – | – | CCCCCCCCCCCCCCCC(=O)SCCNC(=O)CCNC(=O)[C@H](O)C(C)(C)COP(=O)(O)OP(=O)(O)OC[C@H]1O[C@@H](n2cnc3c(N)ncnc32)[C@H](O)[C@@H]1OP(=O)(O)O [palmitoyl-CoA] | decreased the basal level | decreased the basal level |
| 1000 | 1000 | – | binds | CCCCCCCCCCCCCCCCCC(=O)O [stearic acid] | functional activators; also recorded: increased | functional activators; also recorded: increased |
| – | – | – | – | CCCCCCCCCCCCCCCCCC(=O)SCCNC(=O)CCNC(=O)[C@H](O)C(C)(C)COP(=O)(O)OP(=O)(O)OC[C@H]1O[C@@H](n2cnc3c(N)ncnc32)[C@H](O)[C@@H]1OP(=O)(O)O [steroyl-CoA] | decreased the basal level | decreased the basal level |
